Columns and labels:
RiPgm = target: T1, RiPgm (Roseburia intestinalis, UniProt C7G6G9); experiment: HPAEC-PAD of M6P formed; format: biochemical; conditions: 10 mM sodium phosphate pH 5.8, 1 mM MgCl2, 37 °C
T1 construct: gene pgcA_1; recombinant from E. coli, untagged (stop codon before His-tag), HIC purified; encoded in MULL (ROSINTL182_05469-83), own locus tag not in text
T1 sequence (C7G6G9 1-572): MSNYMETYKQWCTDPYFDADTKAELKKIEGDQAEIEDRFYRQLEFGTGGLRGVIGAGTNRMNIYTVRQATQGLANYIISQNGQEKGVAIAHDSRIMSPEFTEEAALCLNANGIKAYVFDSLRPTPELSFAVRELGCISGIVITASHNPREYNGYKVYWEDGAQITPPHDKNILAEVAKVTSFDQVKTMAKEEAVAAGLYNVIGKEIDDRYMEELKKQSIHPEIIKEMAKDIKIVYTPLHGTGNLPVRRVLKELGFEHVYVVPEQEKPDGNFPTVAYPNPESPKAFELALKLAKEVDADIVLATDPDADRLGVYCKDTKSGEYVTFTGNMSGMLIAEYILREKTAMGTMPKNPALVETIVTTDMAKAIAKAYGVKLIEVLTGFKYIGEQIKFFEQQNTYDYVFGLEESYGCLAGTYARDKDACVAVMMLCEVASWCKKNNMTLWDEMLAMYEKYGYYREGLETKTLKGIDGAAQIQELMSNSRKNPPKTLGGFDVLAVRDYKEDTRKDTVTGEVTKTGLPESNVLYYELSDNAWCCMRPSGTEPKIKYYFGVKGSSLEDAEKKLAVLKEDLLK

RiGH113 = target: T2, RiGH113 (Roseburia intestinalis, UniProt C7G6H0); experiment: HPAEC-PAD of mannose released; format: biochemical; conditions: 10 mM sodium phosphate pH 5.8, 37 °C, overnight
T2 construct: gene RIL182_01090; recombinant from E. coli, untagged (stop codon before His-tag), HIC purified
T2 sequence (C7G6H0 1-311): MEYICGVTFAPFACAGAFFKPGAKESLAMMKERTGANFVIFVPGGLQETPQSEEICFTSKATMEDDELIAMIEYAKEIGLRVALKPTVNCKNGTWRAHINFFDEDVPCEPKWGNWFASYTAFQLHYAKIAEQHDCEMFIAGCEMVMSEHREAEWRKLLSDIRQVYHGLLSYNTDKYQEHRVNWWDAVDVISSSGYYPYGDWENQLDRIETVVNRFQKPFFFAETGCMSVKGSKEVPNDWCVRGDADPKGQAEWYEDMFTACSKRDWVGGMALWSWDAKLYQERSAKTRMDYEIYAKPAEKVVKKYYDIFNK

RiMep = target: T3, RiMep (Roseburia intestinalis, UniProt C7G6G3); experiment: HPAEC-PAD of epimerization products; format: biochemical; conditions: 10 mM sodium phosphate pH 5.8, 37 °C
T3 construct: gene ce-ne1; recombinant from E. coli, untagged (stop codon before His-tag), HIC purified
T3 sequence (C7G6G3 1-409): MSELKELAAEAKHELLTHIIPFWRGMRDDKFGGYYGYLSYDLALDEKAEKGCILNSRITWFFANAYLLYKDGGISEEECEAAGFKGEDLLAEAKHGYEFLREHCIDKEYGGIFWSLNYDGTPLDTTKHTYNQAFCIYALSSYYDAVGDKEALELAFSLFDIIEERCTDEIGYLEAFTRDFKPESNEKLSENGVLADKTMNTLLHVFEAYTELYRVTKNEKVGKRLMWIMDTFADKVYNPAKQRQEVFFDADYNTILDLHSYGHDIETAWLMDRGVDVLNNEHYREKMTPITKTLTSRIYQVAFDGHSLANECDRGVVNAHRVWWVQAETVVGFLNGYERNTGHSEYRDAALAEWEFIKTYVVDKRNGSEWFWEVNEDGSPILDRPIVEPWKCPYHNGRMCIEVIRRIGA

RiCBM27 = target: T4, RiCBM27 (Roseburia intestinalis, UniProt Z9TV37KX76); experiment: SPR (Biacore T100, CBM immobilized on NTA chip); format: binding; conditions: 25 °C, 20 mM phosphate/citrate pH 6.5, 150 mM NaCl
T4 construct: expressed in Escherichia coli, immobilized on NTA chip (His6-tag)
T4 sequence (Z9TV37KX76 38-185 limits assumed): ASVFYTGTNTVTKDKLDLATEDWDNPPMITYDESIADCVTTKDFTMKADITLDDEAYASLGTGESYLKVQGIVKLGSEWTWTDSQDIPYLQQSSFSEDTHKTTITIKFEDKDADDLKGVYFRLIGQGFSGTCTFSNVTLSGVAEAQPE
Description: SPR (Biacore T100, CBM immobilized on NTA chip) on RiCBM27

[1] = target: T5, RiCBM23 (Roseburia intestinalis); experiment: SPR (Biacore T100, CBM immobilized on NTA chip); format: binding; conditions: 25 °C, 20 mM phosphate/citrate pH 6.5, 150 mM NaCl
T5 construct: expressed in Escherichia coli, immobilized on NTA chip (His6-tag)
Description: SPR (Biacore T100, CBM immobilized on NTA chip) on RiCBM23

RiMnBP = target: T6, RiMnBP (Roseburia intestinalis, UniProt C7G6G6); experiment: ITC; format: binding; conditions: 25 °C, 10 mM sodium phosphate pH 6.5
T6 construct: gene msmE; mature form, cloned in pETM-11, expressed in E. coli
T6 sequence (C7G6G6 23-489): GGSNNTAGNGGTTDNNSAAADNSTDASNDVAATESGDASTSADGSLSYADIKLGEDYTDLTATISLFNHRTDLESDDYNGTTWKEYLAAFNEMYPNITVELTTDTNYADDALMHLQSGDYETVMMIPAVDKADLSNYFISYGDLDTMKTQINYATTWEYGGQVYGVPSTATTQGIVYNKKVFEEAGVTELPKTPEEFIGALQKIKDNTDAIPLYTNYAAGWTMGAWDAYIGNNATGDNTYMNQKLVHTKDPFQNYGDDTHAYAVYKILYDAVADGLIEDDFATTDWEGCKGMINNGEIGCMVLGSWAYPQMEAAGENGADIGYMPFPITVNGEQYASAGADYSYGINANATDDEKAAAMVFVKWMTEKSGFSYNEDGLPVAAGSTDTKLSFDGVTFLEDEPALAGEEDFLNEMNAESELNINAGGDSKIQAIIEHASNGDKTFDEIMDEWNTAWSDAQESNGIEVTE

RiGH130_2 = target: T7, RiGH130_2 (Roseburia intestinalis, UniProt C7G6G1); experiment: HPAEC-PAD of phosphorolysis products; format: biochemical; conditions: 100 mM sodium phosphate pH 5.8, 37 °C
T7 construct: gene RIL182_01100; recombinant from E. coli, C-terminal His6-tag
T7 sequence (C7G6G1 entry or part of it): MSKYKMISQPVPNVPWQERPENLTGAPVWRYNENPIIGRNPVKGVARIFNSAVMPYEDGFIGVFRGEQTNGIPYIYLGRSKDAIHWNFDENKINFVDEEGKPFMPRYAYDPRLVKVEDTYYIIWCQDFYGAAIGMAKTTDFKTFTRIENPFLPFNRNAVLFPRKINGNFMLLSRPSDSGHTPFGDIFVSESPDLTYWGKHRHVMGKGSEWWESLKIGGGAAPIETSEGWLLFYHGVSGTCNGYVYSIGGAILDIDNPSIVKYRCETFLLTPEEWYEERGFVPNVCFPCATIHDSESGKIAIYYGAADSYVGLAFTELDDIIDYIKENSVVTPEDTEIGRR

Row | Compound | Kd (RiCBM27) [µM] | Kd [1] [µM] | Kd (RiMnBP) [µM] | other results
1 | O=P(O)(O)O[C@H]1O[C@H](CO)[C@@H](O)[C@H](O)[C@@H]1O [M1P, mannose-1-phosphate] | – | – | – | HPAEC-PAD of M6P formed (RiPgm): RiPgm catalyzes the interconversion of M1P and mannose 6-phosphate (M6P)
2 | OC[C@H]1O[C@@H](O[C@H]2[C@H](O)[C@H](O)C(O)O[C@@H]2CO)[C@@H](O)[C@@H](O)[C@@H]1O (stereo partly drawn) [M2, mannobiose] | – | – | – | HPAEC-PAD of mannose released (RiGH113): After overnight incubation with RiGH113, M2 was partially degraded to mannose; HPAEC-PAD of epimerization products (RiMep): RiMep was active on M2 and cellobiose (G2), releasing M1G1 and G1M1, respectively
3 | OC[C@H]1O[C@@H](O[C@H]2[C@H](O)[C@H](O)[C@H](O[C@H]3[C@H](O)[C@H](O)C(O)O[C@@H]3CO)O[C@@H]2CO)[C@@H](O)[C@@H](O)[C@@H]1O (stereo partly drawn) [M3, mannotriose] | 1590 ± 30 | 230 ± 20 | 2.62 | –
4 | OC[C@H]1O[C@@H](O[C@H]2[C@H](O)[C@H](O)[C@H](O[C@H]3[C@H](O)[C@H](O)[C@H](O[C@H]4[C@H](O)[C@H](O)C(O)O[C@@H]4CO)O[C@@H]3CO)O[C@@H]2CO)[C@@H](O)[C@@H](O)[C@@H]1O (stereo partly drawn) [M4, mannotetraose] | 658 ± 20 | 130 ± 50 | 3.89 | HPAEC-PAD of phosphorolysis products (RiGH130_2): phosphorolyzed M4 into M3, M2 and mannose-1-phosphate (M1P)
5 | OC[C@H]1O[C@@H](O[C@H]2[C@H](O)[C@H](O)[C@H](O[C@H]3[C@H](O)[C@H](O)[C@H](O[C@H]4[C@H](O)[C@H](O)[C@H](O[C@H]5[C@H](O)[C@H](O)C(O)O[C@@H]5CO)O[C@@H]4CO)O[C@@H]3CO)O[C@@H]2CO)[C@@H](O)[C@@H](O)[C@@H]1O (stereo partly drawn) [M5, mannopentaose] | 321 ± 20 | 198 ± 70 | 2.55 | –
6 | OC[C@H]1O[C@@H](O[C@H]2[C@H](O)[C@H](O)[C@H](O[C@H]3[C@H](O)[C@H](O)[C@H](O[C@H]4[C@H](O)[C@H](O)[C@H](O[C@H]5[C@H](O)[C@H](O)[C@H](O[C@H]6[C@H](O)[C@H](O)C(O)O[C@@H]6CO)O[C@@H]5CO)O[C@@H]4CO)O[C@@H]3CO)O[C@@H]2CO)[C@@H](O)[C@@H](O)[C@@H]1O (stereo partly drawn) [M6, mannohexaose] | 165 ± 10 | 205 ± 40 | 33.8 | –
7 | diacetylated mannopentaose [M5Ac2] | – | – | 23.5 | –
8 | diacetylated mannotetraose [M4Ac2] | – | – | 25.7 | –

— paper PMC6385246, “The human gut Firmicute Roseburia intestinalis is a primary degrader of dietary β-mannans” (Nature Communications, 2019)
